According to US10781171B2, “Substituted pyrrolidines as G-protein coupled receptor 43 agonists” (Epics Therapeutics, priority 2009, dated 2020):

Tested on: ob/ob mice
Assay: Oral glucose tolerance test (OGTT) in ob/ob mice
Assay type: in vivo, mouse
Conditions: blood glucose AUC -15 to 120 min in OGTT, 50 mg/kg bi-daily for 28 days
Method: Ob/ob or obese mice are leptin-deficient mice that eat excessively and become profoundly obese, hyperinsulinemic and hyperglycemic. It is an animal model of type II diabetes. Such model can be used for oral glucose tolerance tests (OGTTs). A total of sixteen (16) male ob/ob mice (6 weeks of age) were obtained from Harlan. Upon arrival to the animal unit, mice were housed 4 per cage in rodent cages mounted with feeders containing regular chow. The mice were put in a 12/12h light-dark cycle (light from 0600-1800 h) with controlled temperature conditions (22-24° C.). Fed blood glucose and body-weight was measured on day −2 in the morning between 08:00 AM and 09:00 AM. Animals were randomized into 2 groups according to fed glucose levels (on day −2). […]
Day 1 is the first day of dosing. […] At −15 min, blood glucose was measured (using a glucose analyzer) and animals were dosed with compounds of the invention or vehicle. At time point 0, blood glucose was measured again and glucose was administered by oral gavage (1 g/kg glucose). The blood glucose was then measured at time points 15, 30, 45, 60 and 120 minutes. […] The percentages of AUC inhibition induced by compounds of the invention were calculated as follows: % of AUC inhibition: [1-(AUC compound/AUC vehicule)]*100.

## COc1ccccc1-c1ccc(C(=O)N2[C@@H](c3ccccc3Cl)CC[C@H]2C(=O)O)cc1 [Compound 1, (2S,5R)-5-(2-chlorophenyl)-1-(2′-methoxy-[1,1′-biphenyl]-4-carbonyl)pyrrolidine-2-carboxylic acid]
  % of AUC inhibition: 40%
